In patent EP0801570B1, “FORMULATIONS AND METHODS FOR REDUCING SKIN IRRITATION” (COSMEDERM TECHNOLOGIES, priority 1994, dated 1996):
Read-outs that look alike come from different tables or passages of the source.

What was measured:
[1] = system: lactic acid skin irritation; assay: Lactic acid irritation trial, pretreatment test (anti-irritant applied 15 minutes before the irritant); assay type: in vivo, humans; details: for Percent Inhibition (average inhibition of cumulative irritation): cation salt at 250 mM, lactic acid irritant; for inhibit skin irritation: topical solutions in Elizabeth Arden Visible Difference Refining Toner, various amounts of salt
Text: (§1) The following scaled scores were used for sensory assessment: […]

[2] = system: lactic acid skin irritation
Protocol: The majority of the trials were conducted using lactic acid as the skin irritant, and proceeded generally as follows.
(§2) Tests were conducted in multiple panels of from 7 to 12 subjects each. Subjects were instructed not to wear any makeup or facial lotions to the clinic the day of testing. The subjects were instructed to wash their face with Ivory bar soap in the clinic prior to application of test solutions.
Lactic acid skin-irritant compositions were formulated in an appropriate vehicle prior to application to the skin of the subjects.
Controls were performed by applying corresponding formulation(s) (pretreatment and/or skin-irritant composition) with an equimolar amount of sodium chloride to a contralateral portion of the subject's skin. Typically, the test materials were applied to the face of the subject.
All test solutions (including controls) were applied in a double blind, randomized fashion using the prepared solutions as previously placed in coded vial designated for use on either the right or left side of the face (or other test area). Solutions were typically applied using a cotton swab (six strokes) or sponge applicator to the face and cheek area extending from the midline of the nose over to the center of the cheek and from the cheek bone down to the jaw line. Application was made first to the right side and then to the left.
The following scaled scores were used for sensory assessment:
Symptom scores were cumulated, separately for the cation-treated and control-treated areas, for each individual and also for the panel as a whole.

[3] = system: lactic acid skin irritation; assay: Lactic acid irritation trial, time zero test (anti-irritant applied simultaneously with the irritant); assay type: in vivo, humans; details: time zero tests; for inhibition at 250000 µM: Homo sapiens
Text: as §1

skin irritation = assay: Human clinical trials of anti-irritant activity against topical skin irritants; assay type: in vivo, humans; details: for anti-irritant activity: clinical trials
Protocol: The objective of the clinical trials was to determine whether and to what extent topical formulations of the calcium cation reduced or prevented skin irritation caused by certain severe skin irritants, including particularly lactic acid and glycolic acid (which are hydroxy acids), capryloyl salicylic acid (a β-hydroxy acid ester) and capsaicin (an isolate from cayenne and paprika known for its skin-irritating properties). The trials were conducted in a double blind, randomized, vehicle-controlled manner. Various formulations of the invention were tested in over 460 people.
as §2

[4] = pretreatment tests, representative panels, cation concentration 250 mM, vehicle VIS DIFFERENCE
[5] = cation salt at 250 mM, lactic acid irritant
[6] = representative panels, cation concentration 250 mM, vehicle 10% EtOH

SMILES | Percent Inhibition (average inhibition of cumulative irritation) ([1]; pretreatment tests) [%] | Percent Inhibition [1, 4] [%] | inhibit skin irritation [1] | Percent Inhibition (cumulative irritation inhibition) ([2]; concentration 31 mM) [%] | Percent Inhibition (cumulative irritation inhibition) ([2]; concentration 62 mM) [%] | Percent Inhibition (cumulative irritation inhibition) ([2]; concentration 125 mM) [%] | Percent Inhibition (cumulative irritation inhibition) ([2]; concentration 250 mM) [%] | Percent Inhibition (cumulative irritation inhibition) ([2]; concentration 500 mM) [%] | Percent Inhibition (average inhibition of cumulative irritation) [3, 5] [%] | Percent Inhibition [3, 6] [%] | anti-irritant activity (skin irritation) | suppress stinging, burning, tingling, itching and/or erythema (skin irritation; applied topically to the skin, irritants lactic acid, glycolic acid, capryloyl salicylic acid and benzoyl peroxide) | inhibition at 250000 µM ([1]; Homo sapiens, pretreatment tests, representative panels, cation concentration 250 mM, vehicle VIS DIFFERENCE, read-out: Percent Inhibition) [%] | inhibition at 250000 µM ([3]; cation salt at 250 mM, lactic acid irritant, read-out: Percent Inhibition (average inhibition of cumulative irritation)) [%] | inhibition at 250000 µM ([3]; representative panels, cation concentration 250 mM, vehicle 10% EtOH, read-out: Percent Inhibition) [%]
O=[N+]([O-])[O-].O=[N+]([O-])[O-].[Ca+2] [Calcium nitrate] | 45 | 44 | effective to inhibit skin irritation | 26 | 52 | 83 | 82 | 67 | 90 | 85 | particularly active as anti-irritants | – | – | – | –
[Ca+2] [calcium(II) (Ca^2+)] | – | – | – | – | – | – | – | – | – | – | significant and reproducible anti-irritant effects | effective | – | – | –
[Ca+2].[Cl-].[Cl-] [Calcium chloride] | 35 | 35 | effective to inhibit skin irritation | – | – | – | – | – | 65 | 61 | particularly active as anti-irritants | – | – | – | –
CC(=O)[O-].CC(=O)[O-].[Ca+2] [Calcium acetate] | 40 | 30 | effective to inhibit skin irritation | – | – | – | – | – | 60 | 65 | particularly active as anti-irritants | – | – | – | –
O=C(O)[C@H](O)[C@@H](O)[C@H](O)[C@H](O)CO [Calcium gluconate] | – | – | – | – | – | – | – | – | – | – | particularly active as anti-irritants | – | 40 | 40 | 49
